# Laboratory results as given in patent US20230371510A1, “APPLICATION OF PYRROLE-2-CARB[…] CONTROLLING PLANT ROOT-KNOT NEMATODES” (Yunnan University, priority 2022, published 2023).
# Like-named read-outs stand apart in the source and are kept apart here.
# How the values were obtained:
# Type in all cases: in vivo
# Meloidogyne incognita = experiment: Nematicidal (insecticidal) mortality assay on second instar larvae in well plate; conditions: for mortality at 12.5 µg/mL: 12.5 μg/ml; for mortality at 12.5 µg/mL / mortality at 25 µg/mL / mortality at 50 µg/mL / mortality at 100 µg/mL / mortality at 200 µg/mL / mortality at 400 µg/mL: 25° C, read-out: Corrected mortality (%); for mortality at 25 µg/mL: 25 μg/ml; for mortality at 50 µg/mL: 50 μg/ml; for mortality at 100 µg/mL: 100 μg/ml; for mortality at 200 µg/mL: 200 μg/ml; for mortality at 400 µg/mL: 400 μg/ml; for LC50: calculated with SPSS 26.0
# Procedure: (§1) 0.5 mg-1.5 mg of pyrrole-2-carboxaldehyde was dissolved in methanol and diluted with sterile distilled water as the test liquid. The dilution concentrations of each liquid medicine were 12.5 μg/ml, 25 μg/ml, 50 μg/ml, 100 μg/ml, 200 μg/ml and 400 μg/ml respectively, and the mass concentration of methanol in each liquid medicine was 5%. Water containing 5% methanol was used as a blank control.
# The infected tomato roots with Meloidogyne incognita were washed with water, and the oocysts of Meloidogyne incognita were picked by a dissecting needle and placed in 0.4 M KCl solution. The oocysts were washed and disinfected in a 5 ml centrifuge tube with 4 ml sterile water (three times), 1 ml sterile penicillin-streptomycin double antibody solution and 3 ml 0.1% NaClO solution, and the supernatant was removed in each step by short centrifugation (8000 rpm for 30 seconds). The washed eggs were incubated in 0.4 M ZnCl2 solution for 48 h, and the second instar larvae were collected in a 1.5 ml centrifuge tube with a pipette and enriched by short centrifugation (5000 rpm for 30 seconds) for subsequent use.
# 200 μl of the above test liquid was added to a 20-well plate with 100-150 live nematodes and placed at 25° C. […] Method for identification of mortality: 1-5 drops of 5% NaCl solution were added to the wells of the treatment plate and observed after 2 minutes; Dead nematodes were stiff and unresponsive to stimulation with a needle, while surviving nematodes were curled or wriggled.
# (§2) The whole experiment was repeated three times with the test liquid without samples as the control, and the average value was taken three times to calculate the corrected mortality.
# (§3) Mortality %=(number of dead nematodes/(number of dead nematodes+number of surviving nematodes))×100%
# (§4) Corrected mortality %=sample mortality−control mortality
# Meloidogyne arenaria = experiment: Nematicidal (insecticidal) mortality assay in well plate; conditions: 48 h
# Procedure: as §1
# (§5) In addition, root-knot nematodes such as Meloidogyne hapla, Meloidogyne javanica and Meloidogyne arenaria were also prepared for testing.
# (§6) 200 μl of the above test liquid was added to a 20-well plate with 100-150 live nematodes and placed at 25° C. Subsequently, the nematodes were examined under an optical microscope at 12 h, 24 h and 48 h, respectively, to calculate the mortality. Method for identification of mortality: 1-5 drops of 5% NaCl solution were added to the wells of the treatment plate and observed after 2 minutes; Dead nematodes were stiff and unresponsive to stimulation with a needle, while surviving nematodes were curled or wriggled.
# as §2, §3, §4
# Meloidogyne hapla = experiment: as above; conditions: 48 h
# Procedure: as §1, §5, §6, §2, §3, §4
# Meloidogyne javanica = experiment: as above; conditions: 48 h
# Procedure: as §1, §5, §6, §2, §3, §4
smiles,measurement,setting,value
O=Cc1ccc[nH]1 [pyrrole-2-carboxaldehyde],mortality at 12.5 µg/mL,Meloidogyne incognita; 12 h,6.99 ± 1.99%
same,mortality at 12.5 µg/mL,Meloidogyne incognita; 24 h,16.6 ± 3.58%
same,mortality at 12.5 µg/mL,Meloidogyne incognita; 36 h,24.9 ± 4.7%
same,mortality at 12.5 µg/mL,Meloidogyne incognita; 48 h,30.3 ± 4.57%
same,mortality at 12.5 µg/mL,Meloidogyne incognita; 72 h,36.1 ± 5.08%
same,mortality at 25 µg/mL,Meloidogyne incognita; 12 h,15.8 ± 0.29%
same,mortality at 25 µg/mL,Meloidogyne incognita; 24 h,26.5 ± 0.53%
same,mortality at 25 µg/mL,Meloidogyne incognita; 36 h,36.3 ± 0.95%
same,mortality at 25 µg/mL,Meloidogyne incognita; 48 h,42.1 ± 1.51%
same,mortality at 25 µg/mL,Meloidogyne incognita; 72 h,48.5 ± 0.78%
same,mortality at 50 µg/mL,Meloidogyne incognita; 12 h,22.4 ± 0.43%
same,mortality at 50 µg/mL,Meloidogyne incognita; 24 h,36.63 ± 0.19%
same,mortality at 50 µg/mL,Meloidogyne incognita; 36 h,53.4 ± 3.16%
same,mortality at 50 µg/mL,Meloidogyne incognita; 48 h,56.6 ± 0.63%
same,mortality at 50 µg/mL,Meloidogyne incognita; 72 h,63.2 ± 0.99%
same,mortality at 100 µg/mL,Meloidogyne incognita; 12 h,24.3 ± 2.78%
same,mortality at 100 µg/mL,Meloidogyne incognita; 24 h,38.7 ± 2%
same,mortality at 100 µg/mL,Meloidogyne incognita; 36 h,62 ± 0.85%
same,mortality at 100 µg/mL,Meloidogyne incognita; 48 h,83.2 ± 1.29%
same,mortality at 100 µg/mL,Meloidogyne incognita; 72 h,88.27 ± 0.56%
same,mortality at 200 µg/mL,Meloidogyne incognita; 12 h,34.2 ± 1.74%
same,mortality at 200 µg/mL,Meloidogyne incognita; 24 h,64.3 ± 0.9%
same,mortality at 200 µg/mL,Meloidogyne incognita; 36 h,79.29 ± 0.7%
same,mortality at 200 µg/mL,Meloidogyne incognita; 48 h,93.3 ± 2.24%
same,mortality at 200 µg/mL,Meloidogyne incognita; 72 h,94.5 ± 1.89%
same,mortality at 400 µg/mL,Meloidogyne incognita; 12 h,47.5 ± 4.35%
same,mortality at 400 µg/mL,Meloidogyne incognita; 24 h,77.42 ± 0.58%
same,mortality at 400 µg/mL,Meloidogyne incognita; 36 h,93.2 ± 0.82%
same,mortality at 400 µg/mL,Meloidogyne incognita; 48 h,98.01 ± 0.2%
same,mortality at 400 µg/mL,Meloidogyne incognita; 72 h,99.26 ± 0.34%
same,LC50,Meloidogyne incognita; 24 h,84.7 µg/mL
same,LC50,Meloidogyne incognita; 48 h,30.7 µg/mL
same,LC50,Meloidogyne arenaria,31 µg/mL
same,LC50,Meloidogyne hapla,31.6 µg/mL
same,LC50,Meloidogyne javanica,33.6 µg/mL
